Patent US6787354B2, “Methods for the early diagnosis of ovarian cancer” (The Board of Trustees of The University of Arkansas, priority 1997, dated 2004)
Ends that are not written are not given here.

Tested on: peptide-loaded lymphoblastoid cell lines (LCL)
Experiment: 51Cr-release cytotoxicity assay with peptide-specific CD8+ CTL
Assay type: cell-based, human
Description: Monocyte-derived dendritic cells were generated from peripheral blood drawn from normal adult donors of the appropriate HLA type. Adherent monocytes were cultured in AIM-V (Gibco-BRL) supplemented with GM-CSF and IL-4 according to standard techniques (Santin et al, 2000, 2001). After 5-6 days, dendritic cell maturation was induced by addition of PGE2, IL-1β and TNFα for a further 48 h.
Mature dendritic cells were loaded with peptide (2×10^6 dendritic cells with 50 μg/ml peptide in 1 ml serum-free AIM-V medium for 2 h at 37° C.) and washed once prior to culture with 1×10^6/ml peripheral blood mononuclear cells (PBMC) in AIM-V or AIM-V plus 5% human AB serum. The PBMC:DC ratio was between 20:1 and 30:1. After 7 days, responder T cells were restimulated with peptide-loaded, irradiated autologous dendritic cells or peripheral blood mononuclear cells at responder:stimulator ratios between 10:1 and 20:1 or 1:1 and 1:10 respectively. At this point, cultures were supplemented with recombinant human IL-2 (10-100 U/ml), and fed with 50-75% changes of fresh medium plus IL-2 every 2-4 days. T cell lines were established and maintained by peptide restimulation every 14-21 days. Responder CD8^+T cells were purified by positive selection with anti-CD8-coupled magnetic beads (Dynal, Inc.) after the 2nd or 3rd antigen stimulation.
Peptide-specific cytotoxicity was tested in standard 5-6 h microwell ^51Cr-release assays (Nazaruk et al, 1998). Autologous EBV-transformed lymphoblastoid cell lines (LCL) were loaded with peptide (50 μg/ml, 1 h at 37° C.) and subsequently ^51Cr-labeled (50 μCi in 200-300 μl, 1 h at 37° C.). Peptide-loaded ^51Cr-labeled LCL were incubated with CD8^+T cells at effector-target ration between 5:1 and 1.25:1. Cytotoxicity was recorded as percentage ^51Cr released into culture supernatants.

Row | Sequence | Blocking of cytotoxicity against peptide-loaded LCL by MAb specific for a non-polymorphic HLA class I determinant | Blocking of cytotoxicity by MAb specific for HLA A2.1
1 | GRWPWQVSL [GRWPWQVSL] | could be blocked | 
2 | SLGRWPWQV [SLGRWPWQV] | could be blocked | blocked
